Data on 15 compounds can be found in patent publication US8729095B2, “3-(biaryloxy)propionic acid derivatives for prevention and/or treatment of thromboembolic diseases” (Daiichi Sankyo Company, Limited, priority 2009, dated 2014).

Experiment [1] relates to platelet aggregation induced by ADP in rat platelet-rich plasma (PRP). Kind of experiment: Platelet aggregation inhibitory activity during oral administration in a rat (ex vivo, ADP-induced). Conditions: male Wistar rats, 1 mg/10 ml/kg orally, blood collected 4 hours after administration, ADP final concentration 3 μM, vs. control PRP (solvent only), read-out: Inhibition Rates (%). The procedure: 1 mg/10 ml/kg of the test compound was orally administered by gavage to male rats (Slc: Wistar, age 8 to 9 weeks) that had been fasted overnight. 4 hours after administration, a syringe containing 1/10 volume of a 3.13% sodium citrate solution was used to collect blood from the abdominal aorta of a rat under anesthesia. From the collected blood, platelet-rich plasma (PRP) and platelet-poor plasma (PPP) were prepared according to the method described in the method for measuring human platelet aggregation inhibitory activity. PRP was left at rest at 16° C. for 30 minutes, and subsequently used for measurement.
200 μL of the separately collected PRP was dispensed into a cuvette for the aggregation test, followed by incubation at 37° C. for 2 minutes, and subsequently 2 μL of 0.3 mM ADP was added (final concentration 3 μM) to induce platelet aggregation.
Platelet aggregation was measured for 8 minutes using an aggregometer (MCM HEMA TRACER 313M; MC MEDICAL, INC.). With the light transmittance rate of PPP being set as an aggregation value of 100%, the maximum aggregation rate of PRP was determined, and compared with the maximum aggregation rate of control PRP (rat administered only with a solvent) to calculate inhibition rates.

For experiment [2], the system named is platelet aggregation induced by ADP in human platelet-rich plasma (PRP). Kind of experiment: Human platelet aggregation inhibitory activity (ADP-induced, platelet-rich plasma). It is filed as cell-based. Conditions: 8 min, ADP final concentration 20 μM, maximum aggregation rate, measured for 8 minutes. The procedure: A blood collecting syringe containing 1/10 volume of a 3.8% sodium citrate solution was used to collect blood from radial vein of a healthy person. The collected blood was centrifuged at 180×g at room temperature for 10 minutes to separate the supernatant (platelet-rich plasma; PRP). After PRP was separately collected, the remaining blood was centrifuged at 1,600×g for 10 minutes to separately collect platelet-poor plasma (PPP) of the upper layer. PRP was left at rest at 16° C. for 30 minutes, and subsequently used for measurement.
200 μL of the separately collected PRP was dispensed into a cuvette for the aggregation test, and 1 μL of dimethylsulfoxide (control) or a test compound solution diluted with dimethylsulfoxide was added, followed by incubation at 37° C. for 2 minutes. Subsequently, 2 μL of 2 mM ADP was added (final concentration 20 μM) to induce platelet aggregation.
Platelet aggregation was measured for 8 minutes using an aggregometer (MCM HEMA TRACER 313M; MC MEDICAL, INC.). With the light transmittance rate of PPP being set as an aggregation value of 100%, the maximum aggregation rate was determined for each concentration of the test compounds to calculate IC50 values.

Regarding `Cc1ccc(-c2ccc(C(=O)N3CCC(N4C(=O)C(C)(C)Oc5ncc(Cl)cc54)CC3)c(F)c2)c(O[C@H](C)CC(=O)O)c1` [Example 55, (3R)-3-[(4′-{[4-(7-Chloro-3,3-dimethyl-2-oxo-2,3-dihydro-1H-pyrido[2,3-b][1,4]oxazin-1-yl)piperidin-1-yl]carbonyl}-3′-fluoro-4-methylbiphenyl-2-yl)oxy]butanoic acid], in experiment [1], the inhibition – broadly, the percentage by which the read-out fell short of the control – at 1 mg/kg was 68%. Inhibition in experiment [2] was half-maximal at 8.4 µM (IC50).
In the same order, the values of `C[C@H](CC(=O)O)Oc1ccccc1-c1ccc(C(=O)N2CCC(N3C(=O)[C@H](C)Oc4ncc(Cl)cc43)CC2)c(F)c1` [Example 28, (3R)-3-{[4′-({4-[(3S)-7-Chloro-3-methyl-2-oxo-2,3-dihydro-1H-pyrido[2,3-b][1,4]oxazin-1-yl]piperidin-1-yl}carbonyl)-3′-fluorobiphenyl-2-yl]oxy}butanoic acid] are 74% and 1.8 µM.
For `C[C@@H](COc1ccccc1-c1cnc(C(=O)N2CCC(N3C(=O)C(C)(C)Cc4ncc(Cl)cc43)CC2)c(F)c1)C(=O)O` [Example 46, (2S)-3-[2-(6-{[4-(7-Chloro-3,3-dimethyl-2-oxo-3,4-dihydro-1,5-naphthyridin-1(2H)-yl)piperidin-1-yl]carbonyl}-5-fluoropyridin-3-yl)phenoxy]-2-methylpropanoic acid], the inhibition at 1 mg/kg in experiment [1] worked out at 31%. Besides, in experiment [2], the IC50 (in general, the point on the concentration scale where inhibition reaches its midpoint) stood at 1.8 µM.
As to `C[C@H](CC(=O)O)Oc1ccc(F)cc1-c1cnc(C(=O)N2CCC(N3C(=O)C(C)(C)Cc4ncc(Cl)cc43)CC2)c(F)c1` [Example 44, (3R)-3-[2-(6-{[4-(7-Chloro-3,3-dimethyl-2-oxo-3,4-dihydro-1,5-naphthyridin-1(2H)-yl)piperidin-1-yl]carbonyl}-5-fluoropyridin-3-yl)-4-fluorophenoxy]butanoic acid], the inhibition at 1 mg/kg in experiment [1] came out at 55%. For the same compound, in experiment [2], the IC50 was 3.4 µM.
In the same order, the values of `Cc1cc(-c2ccccc2O[C@H](C)CC(=O)O)ccc1C(=O)N1CCC(N2C(=O)C(C)(C)Oc3ncc(Cl)cc32)CC1` [Example 16, (3R)-3-[(4′-{[4-(7-Chloro-3,3-dimethyl-2-oxo-2,3-dihydro-1H-pyrido[2,3-b][1,4]oxazin-1-yl)piperidin-1-yl]carbonyl}-3′-methylbiphenyl-2-yl)oxy]butanoic acid] are 40% and 6.5 µM.
In the same order, the values of `C[C@@H]1Oc2ncc(Cl)cc2N(C2CCN(C(=O)c3ccc(-c4ccccc4OCC(C)(C)C(=O)O)cc3F)CC2)C1=O` [Example 2, 3-{[4′-({4-[(3S)-7-Chloro-3-methyl-2-oxo-2,3-dihydro-1H-pyrido[2,3-b][1,4]oxazin-1-yl]piperidin-1-yl}carbonyl)-3′-fluorobiphenyl-2-yl]oxy}-2,2-dimethylpropanoic acid] are 66% and 3.5 µM.
Take `C[C@H](CC(=O)O)Oc1ccc(F)cc1-c1ccc(C(=O)N2CCC(N3C(=O)C(C)(C)Cc4ncc(Cl)cc43)CC2)c(F)c1` [Example 14, (3R)-3-[(4′-{[4-(7-Chloro-3,3-dimethyl-2-oxo-3,4-dihydro-1,5-naphthyridin-1(2H)-yl)piperidin-1-yl]carbonyl}-3′,5-difluorobiphenyl-2-yl)oxy]butanoic acid]: the inhibition at 1 mg/kg in experiment [1] is 79%. The compound also yielded an IC50 in experiment [2] of 3.4 µM.
In the case of `CC[C@@H](COc1ccccc1-c1ccc(C(=O)N2CCC(N3C(=O)C(C)(C)Oc4ncc(Cl)cc43)CC2)c(F)c1)C(=O)O` [Example 10, (2S)-2-{[(4′-{[4-(7-Chloro-3,3-dimethyl-2-oxo-2,3-dihydro-1H-pyrido[2,3-b][1,4]oxazin-1-yl)piperidin-1-yl]carbonyl}-3′-fluorobiphenyl-2-yl)oxy]methyl}butanoic acid], the inhibition at 1 mg/kg in experiment [1] came out at 47%. In experiment [2], the IC50 is 8.4 µM.
In the case of `C[C@H](CC(=O)O)Oc1ccccc1-c1ccc(C(=O)N2CCC(N3C(=O)C(C)(C)Oc4ncc(Cl)cc43)CC2)c(Cl)c1` [Example 19, (3R)-3-[(3′-Chloro-4′-{[4-(7-chloro-3,3-dimethyl-2-oxo-2,3-dihydro-1H-pyrido[2,3-b][1,4]oxazin-1-yl)piperidin-1-yl]carbonyl}biphenyl-2-yl)oxy]butanoic acid], the inhibition at 1 mg/kg in experiment [1] turned out to be 64%. This compound showed an IC50 in experiment [2] of 7.5 µM.
In the same order, the values of `C[C@@H](COc1ccc(F)cc1-c1ccc(C(=O)N2CCC(N3C(=O)C(C)(C)Oc4ncc(Cl)cc43)CC2)c(F)c1)C(=O)O` [Example 27, (2S)-3-[(4′-{[4-(7-Chloro-3,3-dimethyl-2-oxo-2,3-dihydro-1H-pyrido[2,3-b][1,4]oxazin-1-yl)piperidin-1-yl]carbonyl}-3′,5-difluorobiphenyl-2-yl)oxy]-2-methylpropanoic acid] are 36% and 6.5 µM.
With `C[C@@H](COc1ccccc1-c1ccc(C(=O)N2CCC(N3C(=O)C(C)(C)Cc4ncc(Cl)cc43)CC2)c(F)c1)C(=O)O` [Example 11, (2S)-3-[(4′-{[4-(7-Chloro-3,3-dimethyl-2-oxo-3,4-dihydro-1,5-naphthyridin-1(2H)-yl)piperidin-1-yl]carbonyl}-3′-fluorobiphenyl-2-yl)oxy]-2-methylpropanoic acid], in experiment [1], the inhibition at 1 mg/kg is 45%. Further, the half-inhibitory concentration (IC50) in experiment [2] is 6.1 µM.
For the compound `Cc1cc(-c2cc(F)ccc2O[C@H](C)CC(=O)O)ccc1C(=O)N1CCC(N2C(=O)C(C)(C)Cc3ncc(Cl)cc32)CC1` [Example 45, (3R)-3-[(4′-{[4-(7-Chloro-3,3-dimethyl-2-oxo-3,4-dihydro-1,5-naphthyridin-1(2H)-yl)piperidin-1-yl]carbonyl}-5-fluoro-3′-methylbiphenyl-2-yl)oxy]butanoic acid], in experiment [1], the inhibition at 1 mg/kg is 51%. Further, the IC50 in experiment [2] was found to be 11 µM.
For `C[C@H](CC(=O)O)Oc1ccc(F)cc1-c1cnc(C(=O)N2CCC(N3C(=O)C(C)(C)Oc4ncc(Cl)cc43)CC2)c(F)c1` [Example 42, (3R)-3-[2-(6-{[4-(7-Chloro-3,3-dimethyl-2-oxo-2,3-dihydro-1H-pyrido[2,3-b][1,4]oxazin-1-yl)piperidin-1-yl]carbonyl}-5-fluoropyridin-3-yl)-4-fluorophenoxy]butanoic acid], in that order: 54% and 1.4 µM.
In the case of `Cc1cc(-c2ccccc2O[C@H](C)CC(=O)O)ccc1C(=O)N1CCC(N2C(=O)C(C)(C)Cc3ncc(Cl)cc32)CC1` [Example 36, (3R)-3-[(4′-{[4-(7-Chloro-3,3-dimethyl-2-oxo-3,4-dihydro-1,5-naphthyridin-1(2H)-yl)piperidin-1-yl]carbonyl}-3′-methylbiphenyl-2-yl)oxy]butanoic acid], in experiment [1], the inhibition at 1 mg/kg is 47%. The compound also came in with an IC50 in experiment [2] of 5.2 µM.
Turning to `C[C@H](CC(=O)O)Oc1ccc(F)cc1-c1ccc(C(=O)N2CCC(N3C(=O)[C@H](C)Oc4ncc(Cl)cc43)CC2)c(F)c1` [Example 29, (3R)-3-{[4′-({4-[(3S)-7-Chloro-3-methyl-2-oxo-2,3-dihydro-1H-pyrido[2,3-b][1,4]oxazin-1-yl]piperidin-1-yl}carbonyl)-3′,5-difluorobiphenyl-2-yl]oxy}butanoic acid], the inhibition at 1 mg/kg in experiment [1] worked out at 75%. In addition, the IC50 in experiment [2] stood at 4.3 µM.
